Test results: US8828682B2, “Methods and articles for detecting hemolytic microorganisms” (priority 2008, dated 2014)
Read-outs that look alike come from different tables or passages of the source.

Assays:
[1] = system: methicillin-resistant S. aureus (strain 565, clinical isolate); assay type: cell-based, Staphylococcus aureus; settings: 35° C., 10% sheep blood in PBS
Method: (§1) Antibiotic stock solutions (3 mg/mL and 4 mg/mL) were individually prepared in DI water. The solutions were filter-sterilized. The antibiotics included cefoxitin, cefazolin, and cefuroxime. The antibiotics were diluted 1:1000 into PBS/sheep blood aliquots to achieve final antibiotic concentrations of 3 μg/mL and 4 μg/mL, respectively.
(§2) The bacterial suspensions were subjected to two serial 1:100 dilutions in sterile PBS. The diluted suspensions were then further subjected to a 1:100 dilution into each of the respective PBS/sheep blood mixtures containing an antibiotic. One milliliter of each final suspension; containing sheep blood, microorganisms, and an antibiotic in PBS; was into a PAC plate as described above. The plates were incubated at 35° C. for 48 hours. Each plate was checked for colony growth and hemolytic zone after 24 and 48 hours of incubation.

[2] = system: methicillin-resistant S. epidermidis (strain 497, clinical isolate); experiment: Growth and hemolysis in PAC thin film culture plates with antibiotic in PBS/10% sheep blood diluent; assay type: cell-based, Staphylococcus epidermidis; settings: 35° C., 10% sheep blood in PBS
Method: as §1, §2

CO[C@@]1(NC(=O)Cc2cccs2)C(=O)N2C(C(=O)O)=C(COC(N)=O)CS[C@@H]21 [Cefo, cefoxitin]
+/+: Growth ([1]; antibiotic 3 μg/mL, 24 hours) | Hemolysis ([1]; antibiotic 3 μg/mL, 24 hours) | Growth ([1]; antibiotic 3 μg/mL, 48 hours) | Hemolysis ([1]; antibiotic 3 μg/mL, 48 hours) | Growth ([1]; antibiotic 4 μg/mL, 24 hours) | Hemolysis ([1]; antibiotic 4 μg/mL, 24 hours) | Growth ([1]; antibiotic 4 μg/mL, 48 hours) | Hemolysis ([1]; antibiotic 4 μg/mL, 48 hours) | Growth ([2]; antibiotic 3 μg/mL, 24 hours) | Growth ([2]; antibiotic 3 μg/mL, 48 hours) | Growth ([2]; antibiotic 4 μg/mL, 24 hours) | Growth ([2]; antibiotic 4 μg/mL, 48 hours)

CO/N=C(\C(=O)N[C@@H]1C(=O)N2C(C(=O)O)=C(COC(N)=O)CS[C@H]12)c1ccco1 [Cefu, cefuroxime]
+/+: Growth ([1]; antibiotic 3 μg/mL, 24 hours) | Hemolysis ([1]; antibiotic 3 μg/mL, 24 hours) | Growth ([1]; antibiotic 3 μg/mL, 48 hours) | Hemolysis ([1]; antibiotic 3 μg/mL, 48 hours) | Growth ([1]; antibiotic 4 μg/mL, 24 hours) | Hemolysis ([1]; antibiotic 4 μg/mL, 24 hours) | Growth ([1]; antibiotic 4 μg/mL, 48 hours) | Hemolysis ([1]; antibiotic 4 μg/mL, 48 hours) | Growth ([2]; antibiotic 3 μg/mL, 24 hours) | Growth ([2]; antibiotic 3 μg/mL, 48 hours) | Growth ([2]; antibiotic 4 μg/mL, 24 hours) | Growth ([2]; antibiotic 4 μg/mL, 48 hours)
